{"source": "patent US11548918B2", "about": "“Sodium channel protein Nav1.4-targeting polypeptide and use thereof” (priority 2021, dated 2023)", "tested_on": "skin wrinkles", "assay": "Clinical trial of wrinkle reduction, wrinkle volume measured with PRIMOS CR", "format": "in vivo, human", "details": "lotion with 0.0003 wt % NaV-B, 0.1 g at corners of eyes, female volunteers", "protocol": "The capacity of NaV-B in reducing skin wrinkles was evaluated by clinical trials, wherein a total of 30 female volunteers ranging from 35 to 55 years old were participating in the trials. In the trials, 0.1 g of lotion was evenly applied to the corners of the volunteers' eyes. The wrinkle volume of each volunteer was measured with a wrinkle analyzer PRIMOS CR at various moments: before application, 15 minutes after application, 1 hour after application, 2 hours after application, and 4 hours after application.\nThe lotion was prepared by adding NaV-B, glycerin, 1,3-butanediol, sodium hyaluronate, and methylparaben into deionized water according to the following proportions, and stirring until all the ingredients were dissolved.\nResults: The reduced wrinkle volumes of each volunteer were obtained by subtracting the volume measured before application from the volumes measured 15 minutes after application, 1 hour after application, 2 hours after application, and 4 hours after application. The percentages of reduced wrinkle volume of each volunteer were obtained through dividing the reduced wrinkle volumes by the volume measured before application.", "note": "Where no end group is shown, it is not given here."}
{"substance": "Synthetic Nav1.4-targeting polypeptide, amino acid sequence GHCCGDEYRKWCGKRVCRNKARCC (disulfide (positions not given here); not fully specified (bridges)) [NaV-B]", "values": [{"measurement": "percentage of reduced wrinkle volume (average of all volunteers)", "setting": "15 minutes after application", "result": "more than 9%"}, {"measurement": "percentage of reduced wrinkle volume (average of all volunteers)", "setting": "4 hours after application", "result": "more than 15%"}]}
